These results are taken from patent publication US9867377B2, “Composition comprising a biological control agent and an insecticide” (Bayer CropScience AG, priority 2012, dated 2018).

Format in all cases: in vivo
Test [1] concerns mustard beetle larvae (Phaedon cochleariae). In words: Phaedon cochleariae - spray test. Particulars: mortality, Chinese cabbage leaf disks sprayed. The method, then:
(§1) Formula for the efficacy of the combination of two compounds • The expected efficacy of a given combination of two compounds is calculated as follows (see Colby, S. R., “Calculating Synergistic and antagonistic Responses of Herbicide Combinations”, Weeds 15, pp. 20-22, 1967): • If • X is the efficacy expressed in % mortality of the untreated control for test compound A at a concentration of m ppm respectively m g/ha, • Y is the efficacy expressed in % mortality of the untreated control for test compound B at a concentration of n ppm respectively n g/ha, • E is the efficacy expressed in % mortality of the untreated control using the mixture of A and B at m and n ppm respectively m and n g/ha, • then is
(§2) [formula] • If the observed insecticidal efficacy of the combination is higher than the one calculated as, “E”, then the combination of the two compounds is more than additive, i.e., there is a synergistic effect.
Phaedon cochleariae—Spray Test
Solvent: 78.0 parts by weight of acetone • • 1.5 parts by weight of dimethylformamide
Emulsifier: alkylaryl polyglycol ether […]
After the specified period of time, mortality in % is determined. […] The mortality values determined thus are recalculated using the Colby-formula (see sheet 1).

The test system of test [2] is green peach aphid (Myzus persicae). In words: Myzus persicae - spray test. The conditions noted are these: mortality, infested Chinese cabbage leaf disks sprayed; for Efficacy in % after 6 d: 0.4 g ai/ha. The method, then:
as §1, §2
Myzus persicae—Spray Test
(§3) Solvent: 78.0 parts by weight acetone • 1.5 parts by weight dimethylformamide
(§4) Emulsifier: alkylaryl polyglycol ether
(§5) To produce a suitable preparation of active compound, 1 part by weight of active compound is mixed with the stated amount of solvents and is diluted with water, containing an emulsifier concentration of 1000 ppm, to the desired concentration. To produce a suitable preparation of a spore suspension the spores are diluted with emulsifier containing water to the desired concentration. Further test concentrations are prepared by dilution with emulsifier containing water.
Chinese cabbage (Brassica pekinensis) leaf-disks infected with all instars of the green peach aphid (Myzus persicae) are sprayed with a preparation of the active ingredient of the desired concentration.
After the specified period of time, mortality in % is determined. 100% means all aphids have been killed; 0% means none of the aphids have been killed. The mortality values determined thus are recalculated using the Colby-formula (see sheet 1).

For test [3], the system named is two spotted spidermite (Tetranychus urticae). In words: Tetranychus urticae - spray test, OP-resistant. The conditions noted are these: mortality, infested French beans sprayed. Here is the method: as §1, §2
Tetranychus urticae—Spray Test, OP-Resistant
as §3, §4, §5
French beans (Phaseolus vulgaris) which are heavily infested with all stages of the two spotted spidermite (Tetranychus urticae), are sprayed with a preparation of the active ingredient of the desired concentration.
After the specified period of time, mortality in % is determined. 100% means all spider mites have been killed and 0% means none of the spider mites have been killed. The mortality values determined thus are recalculated using the Colby-formula (see sheet 1).

With `CNC(=O)c1cc(C#N)cc(C)c1NC(=O)c1cc(Cn2nnc(C(F)(F)F)n2)nn1-c1ncccc1Cl` [BCS-CL73507], the “Efficacy in % after 6 d” value in test [1] (0.08 g ai/ha) and in test [2] was 0% in each case. Take `O=C1C=C(N(Cc2ccc(Cl)nc2)CC(F)F)CO1` [Flupyradifurone]: in test [3] (250 g ai/ha), the “Efficacy in % after 6 d” value came to 0%. Further, the “Efficacy in % after 1 d” value in test [2] (20 g ai/ha) was 0%. Turning to `Cc1cc(C)c(C2=C(OC(=O)CC(C)(C)C)C3(CCCC3)OC2=O)c(C)c1` [Spiromesifen], the “Efficacy in % after 6 d” value in test [3] (0.5 g ai/ha) is recorded as 0%.

On to `CCOC(=O)OC1=C(c2cc(C)ccc2C)C(=O)N[C@]12CC[C@@H](OC)CC2` [Spirotetramat], for which, in test [2], the “Efficacy in % after 6 d” value was 0%.

Regarding `O=C(NCCc1ncc(C(F)(F)F)cc1Cl)c1ccccc1C(F)(F)F` [Fluopyram], the “Efficacy in % after 6 d” value in test [1] (100 g ai/ha) was determined as 0%. Further, the “Efficacy in % after 1 d” value in test [2] (1000 g ai/ha) was 0%. As to `Cc1cc(F)c(-n2nc(C(F)(F)F)nc2N)cc1[S+]([O-])CC(F)(F)F` (stereo not shown) [AMSI 378, 1-{2-fluoro-4-methyl-5-[(2,2,2-trifluorethyl)sulfinyl]phenyl}-3-(trifluoromethyl)-1H-1,2,4-triazol-5-amine], in test [3] (4 g ai/ha), the “Efficacy in % after 2 d” value was determined as 30% and the “Efficacy in % after 6 d” value was found to be 0%.
